Like-named read-outs stand apart in the source and are kept apart here.
How the values were obtained:
[1] = molecular target: T1, human adrenergic beta2 receptor (Homo sapiens, UniProt P07550); assay: Human adrenergic β2 receptor binding assay (3H-CGP12177, Sf9 membranes)
T1 construct: purchased Perkin Elmer; host or cells: Sf9 cells (membranes)
Procedure: Test 1: Human Adrenergic β1 and β2 Receptor Binding Assays
The study of binding to human adrenergic beta1 and beta2 receptors was performed using commercial membranes prepared from Sf9 cells where they are overexpressed (Perkin Elmer). The membrane suspensions (16 μg/well for beta1 and 5 μg/well for beta2) in assay buffer (75 mM Tris/HCl with 12.5 mM MgCl2 and 2 mM EDTA pH=7.4) were incubated with 0.14 or 0.6 nM of 3H-CGP12177 (Amersham) for beta 1 and beta 2 receptors respectively in a final volume of 250 μl, in GFC Multiscreen 96 well plates (Millipore) previously treated with assay buffer containing 0.3% PEI (Sigma). Non specific binding was measured in the presence of 1 μM propanolol. Incubation was maintained for 60 minutes at room temperature and with gentle shaking. The binding reactions were terminated by filtration and washing with 2.5 volumes of Tris/HCl 50 mM pH=7.4. The affinity of each test compound to the receptor was determined by using ten different concentrations ran in duplicate. IC50s were calculated using Activity Base software from IDBS and the four parameters-log equation.

[2] = molecular target: T2, human muscarinic M3 receptor (Homo sapiens, UniProt P20309); assay: Human muscarinic M3 receptor binding assay ([3H]-NMS, CHO-K1 membranes)
T2 construct: purchased Perkin Elmer; host or cells: CHO-K1 cells (membranes)
T2 sequence (P20309 whole entry): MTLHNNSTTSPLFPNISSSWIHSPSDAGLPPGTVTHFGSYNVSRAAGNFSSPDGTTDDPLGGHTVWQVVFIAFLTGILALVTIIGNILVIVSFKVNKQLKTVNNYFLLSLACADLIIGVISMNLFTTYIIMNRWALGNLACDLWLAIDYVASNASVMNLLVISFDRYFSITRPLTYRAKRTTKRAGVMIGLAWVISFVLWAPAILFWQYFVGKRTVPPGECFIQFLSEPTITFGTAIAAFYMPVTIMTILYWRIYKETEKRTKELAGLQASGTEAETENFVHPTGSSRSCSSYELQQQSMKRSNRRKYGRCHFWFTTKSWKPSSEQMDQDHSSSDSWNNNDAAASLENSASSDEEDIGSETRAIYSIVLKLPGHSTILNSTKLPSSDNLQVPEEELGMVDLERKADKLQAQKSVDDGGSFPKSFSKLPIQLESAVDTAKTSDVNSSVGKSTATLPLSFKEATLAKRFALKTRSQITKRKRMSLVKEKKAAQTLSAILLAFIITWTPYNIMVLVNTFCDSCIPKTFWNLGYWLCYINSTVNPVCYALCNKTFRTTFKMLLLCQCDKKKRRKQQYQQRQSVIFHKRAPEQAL
Procedure: Test 2: Human Muscarinic M1, M2, M3, M4 and M5 Receptors Binding Assays
The study of binding to human muscarinic M1, M2, M3, M4 and M5 receptors was performed using commercial membranes (Perkin Elmer) prepared from CHO-K1 cells. Radioligand binding experiments were conducted in 96 polypropylene well plates in a total volume of 200 μl. All reagents were dissolved in assay binding buffer (PBS with calcium and magnesium, SIGMA), except compounds that were dissolved in DMSO 100%. Non-specific binding (NSB) was measured in the presence of 1 μM atropine. [3H]-NMS was used as the radioligand at a concentration of 1 nM for M2, M3 and M5 and 0.3 nM for M1 and M4. [3H]-NMS and antagonists were incubated with membranes that express human muscarinic receptors M1, M2, M3, M4 and M5 at concentrations of 8.1, 10, 4.9, 4.5 and 4.9 μg/well, respectively. After an incubation period of two hours with gentle shaking, 150 μl of the reaction mix were transferred to 96 GF/C filter plates (Millipore), previously treated with wash buffer (Tris 50 mM; NaCl 100 mM; pH:7.4), containing 0.05% PEI (Sigma) during one hour. Bound and free [3H]-NMS were separated by rapid vacuum filtration in a manifold from Millipore and washed four times with ice cold wash buffer. After drying 30 min, 30 μl of OPTIPHASE Supermix were added to each well and radioactivity quantified using a Microbeta microplate scintillation counter.
The affinity of each test compound to the receptors was determined by using ten different concentrations ran in duplicate. IC50s were calculated using Activity Base software from IDBS and the four parameters-log equation.

[3] = membranes from Sf9 cells overexpressing human beta2, 0.6 nM 3H-CGP12177, read-out: Binding IC50, β2
[4] = membranes from CHO-K1 cells expressing human M3, 1 nM [3H]-NMS, read-out: Binding IC50, M3

Row | Molecule | IC50 [1, 3] | IC50 [2, 4] | IC50 [1] | IC50 [2]
1 | CN(CCCn1ccc2cc(CNC[C@H](O)c3ccc(O)c4[nH]c(=O)ccc34)ccc21)[C@H]1CC[C@H](OC(=O)C(O)(c2cccs2)c2cccs2)CC1 (relative stereo) [Example 4, trans-4-[{3-[5-({[(2R)-2-hydroxy-2-(8-hydroxy-2-oxo-1,2-dihydroquinolin-5-yl)ethyl]amino}methyl)-1H-indol-1-yl]propyl}(methyl)amino]cyclohexyl hydroxy(di-2-thienyl)acetate dihydrofluoride] | 220 nM | 0.6 nM |  | 
2 | CN(CCNC(=O)COc1ccc(CNC[C@H](O)c2ccc(O)c3[nH]c(=O)ccc23)cc1)[C@H]1CC[C@H](OC(=O)C(O)(c2cccs2)c2cccs2)CC1 (relative stereo) [Example 8, trans-4-[[2-({[4-({[(2R)-2-hydroxy-2-(8-hydroxy-2-oxo-1,2-dihydroquinolin-5-yl)ethyl]amino}methyl)phenoxy]acetyl}amino)ethyl](methyl)amino]cyclohexyl hydroxy(di-2-thienyl)acetate dihydrofluoride] | 18 nM | 2.2 nM |  | 
3 | CN(CCCn1c(=O)oc2cc(CNC[C@H](O)c3ccc(O)c4[nH]c(=O)ccc34)ccc21)[C@H]1CC[C@H](OC(=O)C(O)(c2cccs2)c2cccs2)CC1 [Example 1, trans-4-[{3-[6-({[(2R)-2-hydroxy-2-(8-hydroxy-2-oxo-1,2-dihydroquinolin-5-yl)ethyl]amino}methyl)-2-oxo-1,3-benzoxazol-3(2H)-yl]propyl}(methyl)amino]cyclohexyl hydroxy(di-2-thienyl)acetate, dihydrofluoride] | 140 nM | 0.3 nM |  | 
4 | CN(CCCn1c(=O)[nH]c2cc(CNC[C@H](O)c3ccc(O)c4[nH]c(=O)ccc34)ccc21)[C@H]1CC[C@H](OC(=O)C(O)(c2cccs2)c2cccs2)CC1 [Example 2, trans-4-[{3-[5-({[(2R)-2-hydroxy-2-(8-hydroxy-2-oxo-1,2-dihydroquinolin-5-yl)ethyl]amino}methyl)-2-oxo-2,3-dihydro-1H-benzimidazol-1-yl]propyl}(methyl)amino]cyclohexyl hydroxy(di-2-thienyl)acetate dihydrofluoride] |  |  | 120 nM | 0.4 nM
5 | CN(CCCc1nc(-c2ccc(CNC[C@H](O)c3ccc(O)c4[nH]c(=O)ccc34)cc2)no1)[C@H]1CC[C@H](OC(=O)C(O)(c2cccs2)c2cccs2)CC1 [Example 5, trans-4-[(3-{3-[4-({[(2R)-2-hydroxy-2-(8-hydroxy-2-oxo-1,2-dihydroquinolin-5-yl)ethyl]amino}methyl)phenyl]-1,2,4-oxadiazol-5-yl}propyl)(methyl)amino]cyclohexyl hydroxy(di-2-thienyl)acetate dihydrofluoride] | 2.7 nM | 0.4 nM |  | 
6 | CN(CCN(C)[C@H]1CC[C@H](OC(=O)C(O)(c2cccs2)c2cccs2)CC1)C(=O)COc1ccc(CNC[C@H](O)c2ccc(O)c3[nH]c(=O)ccc23)cc1 [Example 6, trans-4-[{2-[{[4-({[(2R)-2-hydroxy-2-(8-hydroxy-2-oxo-1,2-dihydroquinolin-5-yl)ethyl]amino}methyl)phenoxy]acetyl}(methyl)amino]ethyl}(methyl)amino]cycloh exyl hydroxy(di-2-thienyl)acetate dihydrofluoride] | 34 nM | 1.4 nM |  | 
7 | COc1cc(-c2noc(CCCN(C)[C@H]3CC[C@H](OC(=O)C(O)(c4cccs4)c4cccs4)CC3)n2)c(Cl)cc1CNC[C@H](O)c1ccc(O)c2[nH]c(=O)ccc12 [Example 9, trans-4-[(3-{3-[2-chloro-4-({[(2R)-2-hydroxy-2-(8-hydroxy-2-oxo-1,2-dihydroquinolin-5-yl)ethyl]amino}methyl)-5-methoxyphenyl]-1,2,4-oxadiazol-5-yl}propyl)(methyl)amino]cyclohexyl hydroxy(di-2-thienyl)acetate dihydrofluoride] |  |  | 2.2 nM | 0.2 nM
8 | COc1cc(OCC(=O)N(C)CCN(C)[C@H]2CC[C@H](OC(=O)C(O)(c3cccs3)c3cccs3)CC2)c(Cl)cc1CNC[C@H](O)c1ccc(O)c2[nH]c(=O)ccc12 [Example 10, trans-4-[{2-[{[2-chloro-4-({[(2R)-2-hydroxy-2-(8-hydroxy-2-oxo-1,2-dihydroquinolin-5-yl)ethyl]amino}methyl)-5-methoxyphenoxy]acetyl}(methyl)amino]ethyl}(methyl)amino]cyclohexyl hydroxy(di-2-thienyl)acetate dihydrofluoride] |  |  | 5.7 nM | 0.4 nM
9 | CN(CCCn1c(=O)sc2cc(CNC[C@H](O)c3ccc(O)c4[nH]c(=O)ccc34)ccc21)[C@H]1CC[C@H](OC(=O)C(O)(c2cccs2)c2cccs2)CC1 [Example 11, trans-4-[{3-[6-({[(2R)-2-hydroxy-2-(8-hydroxy-2-oxo-1,2-dihydroquinolin-5-yl)ethyl]amino}methyl)-2-oxo-1,3-benzothiazol-3(2H)-yl]propyl}(methyl)amino]cyclohexyl hydroxy(di-2-thienyl)acetate dihydrofluoride] | 4.2 nM | 0.5 nM |  | 
10 | CN(CCCn1c(=O)oc2cc(CNC[C@H](O)c3ccc(O)c4[nH]c(=O)ccc34)ccc21)[C@H]1CC[C@H](OC(=O)C2(C)c3ccccc3Oc3ccccc32)CC1 [Example 15, trans-4-[{3-[6-({[(2R)-2-hydroxy-2-(8-hydroxy-2-oxo-1,2-dihydroquinolin-5-yl)ethyl]amino}methyl)-2-oxo-1,3-benzoxazol-3(2H)-yl]propyl}(methyl)amino]cyclohexyl 9-methyl-9H-xanthene-9-carboxylate dihydrofluoride] | 1.5 nM | 1 nM |  | 
11 | CN(CCCn1nnc2cc(CNC[C@H](O)c3ccc(O)c4[nH]c(=O)ccc34)ccc21)[C@H]1CC[C@H](OC(=O)[C@](O)(c2cccs2)C2CCCC2)CC1 [Example 17, trans-4-[{3-[5-({[(2R)-2-hydroxy-2-(8-hydroxy-2-oxo-1,2-dihydroquinolin-5-yl)ethyl]amino}methyl)-1H-1,2,3-benzotriazol-1-yl]propyl}(methyl)amino]cyclohexyl (2S)-cyclopentyl(hydroxy)-2-thienylacetate dihydrofluoride] | 13 nM | 0.6 nM |  | 
12 | trans-4-[{3-[5-({[(2R)-2-hydroxy-2-(5-hydroxy-3-oxo-3,4-dihydro-2H-1,4-benzoxazin-8-yl)ethyl]amino}methyl)-1H-1,2,3-benzotriazol-1-yl]propyl}(methyl)amino]cyclohexyl (2S)-cyclopentyl(hydroxy)-2-thienylacetate dihydrofluoride [Example 18] |  | 0.4 nM |  | 
13 | trans-4-[{3-[6-(2-{[(2R)-2-hydroxy-2-(8-hydroxy-2-oxo-1,2-dihydroquinolin-5-yl)ethyl]amino}ethyl)-2-oxo-1,3-benzoxazol-3(2H)-yl]propyl}(methyl)amino]cyclohexyl hydroxy(di-2-thienyl)acetate dihydrofluoride [Example 19] | 62 nM | 0.8 nM |  | 
14 | trans-4-{[2-({2-[4-(2-{[(2R)-2-hydroxy-2-(8-hydroxy-2-oxo-1,2-dihydroquinolin-5-yl)ethyl]amino}propyl)phenoxy]acetyl}amino)ethyl]amino}cyclohexyl hydroxy(di-2-thienyl)acetate dihydrofluoride [Example 20] | 3.1 nM | 3.6 nM |  | 

Source: US20140303127A1, “NEW CYCLOHEXYLAMINE DERIVATIVES HAVING BETA 2 ADRENERGIC AGONIST AND M3 MUSCARINIC ANTAGONIST ACTIVITIES” (ALMIRALL, S.A., priority 2011, published 2014)
